The source of these data is PMC8853664, “Protein visualization and manipulation in Drosophila through the use of epitope tags recognized by nanobodies” (eLife, 2022).

For the test, the system named is REPTOR. Nature of the test: REPTOR localization in adult enterocytes after rapamycin treatment, detected with nanobody-GFP. The class given is in vivo, Drosophila. The note with it: rapamycin 50 µM in food, 15 hr; adult enterocytes co-expressing VHH05-REPTOR-127D01 and Nb127D01-GFP or NbVHH05-GFP; confocal imaging. The text has this:
To address whether NanoTagged POIs can be detected in vivo, we generated UAS-VHH05-REPTOR-127D01 flies. A previous study has shown that in S2 cells, the transcription factor REPTOR is enriched in the cytoplasm under normal conditions but translocates into the nucleus upon rapamycin treatment ([Tiebe et al., 2015]). To test whether the changes in REPTOR localization can be detected using the nanobodies, we co-expressed NanoTagged REPTOR along with Nb127D01-GFP or NbVHH05-GFP specifically in adult enterocytes (ECs). In the absence of a NanoTagged POI, Nb127D01-GFP and NbVHH05-GFP were detected in both the cytoplasm and nuclei (Figure 5G1). In contrast, when co-expressed with NanoTagged REPTOR, the nanobody-GFP signals were enriched in the cytoplasm of ECs under normal food conditions (Figure 5H and J). […] Similar changes were absent from ECs that express Nb127D01-GFP or NbVHH05-GFP alone (Figure 5G1).
For rapamycin treatment, rapamycin (LC Laboratories, R-5000) was dissolved in DMSO and mixed into the media when preparing food vials. The rapamycin dose was 50 µM. […]

Take `CO[C@H]1C[C@@H]2CC[C@@H](C)[C@@](O)(O2)C(=O)C(=O)N2CCCC[C@H]2C(=O)O[C@H]([C@H](C)C[C@@H]2CC[C@@H](O)[C@H](OC)C2)CC(=O)[C@H](C)/C=C(\C)[C@@H](O)[C@@H](OC)C(=O)[C@H](C)C[C@H](C)/C=C/C=C/C=C/1C` [rapamycin, Rapamycin]: the REPTOR subcellular localization result is “leads to translocation of REPTOR into the nucleus”.
